Tests used:
HT-29 cells = test: In vitro anti-proliferative activity against HT-29 cells (intracellular ATP content, 72 h); format: cell-based; settings: Homo sapiens, 72 h after dosing
Protocol: Biological Example 2. In Vitro Anti-Proliferative Activity of Compounds of the Present Invention Against HT-29 Cells
(§1) HT-29 cells were seeded on a 384-well plate at 3000 cells/well. After overnight adherence culture, DMSO or the compounds serially diluted in a 1:5 ratio from 5 μM were added. The viability was assessed 72 h after dosing by measuring the intracellular ATP content. The inhibition percentages of viable cells by the compounds were calculated by comparing with the DMSO group, and the IC so values were also calculated.

HCT116 cells = test: In vitro anti-proliferative activity against HCT116 cells (intracellular ATP content, 72 h); format: cell-based; settings: Homo sapiens, HCT-116, 72 h after dosing
Protocol: Biological Example 3. In Vitro Anti-Proliferative Activity of Compounds of the Present Invention Against HCT116 Cells
as §1, with “HCT116” for “HT-29”, “IC50” for “IC so”

[1] = target: Recombinant human KIF18A (1-467His-tagged) protein (Homo sapiens (Human), UniProt Q8NI77); test: KIF18A enzyme assay (microtubule-stimulated ATPase activity, ADP-Glo); format: biochemical; settings: 30 nM KIF18A, ATP 75 μM, read-out: inhibitory activity against KIF18A IC50
Chain of Recombinant human KIF18A (1-467His-tagged) protein (Q8NI77 1-467): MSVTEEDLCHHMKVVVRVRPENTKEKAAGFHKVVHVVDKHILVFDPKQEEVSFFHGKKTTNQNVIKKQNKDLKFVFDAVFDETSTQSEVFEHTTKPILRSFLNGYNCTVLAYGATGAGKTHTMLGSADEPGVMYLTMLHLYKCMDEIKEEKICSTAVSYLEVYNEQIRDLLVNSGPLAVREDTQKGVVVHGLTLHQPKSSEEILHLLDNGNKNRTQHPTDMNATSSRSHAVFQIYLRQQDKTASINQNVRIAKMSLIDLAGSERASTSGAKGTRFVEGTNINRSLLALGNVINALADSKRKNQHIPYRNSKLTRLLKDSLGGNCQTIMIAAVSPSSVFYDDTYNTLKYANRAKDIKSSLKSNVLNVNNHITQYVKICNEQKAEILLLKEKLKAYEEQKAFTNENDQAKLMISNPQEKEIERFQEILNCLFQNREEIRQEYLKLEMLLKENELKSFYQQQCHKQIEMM
Chain of Recombinant human KIF18A (1-467His-tagged) protein (P02550 whole entry partner): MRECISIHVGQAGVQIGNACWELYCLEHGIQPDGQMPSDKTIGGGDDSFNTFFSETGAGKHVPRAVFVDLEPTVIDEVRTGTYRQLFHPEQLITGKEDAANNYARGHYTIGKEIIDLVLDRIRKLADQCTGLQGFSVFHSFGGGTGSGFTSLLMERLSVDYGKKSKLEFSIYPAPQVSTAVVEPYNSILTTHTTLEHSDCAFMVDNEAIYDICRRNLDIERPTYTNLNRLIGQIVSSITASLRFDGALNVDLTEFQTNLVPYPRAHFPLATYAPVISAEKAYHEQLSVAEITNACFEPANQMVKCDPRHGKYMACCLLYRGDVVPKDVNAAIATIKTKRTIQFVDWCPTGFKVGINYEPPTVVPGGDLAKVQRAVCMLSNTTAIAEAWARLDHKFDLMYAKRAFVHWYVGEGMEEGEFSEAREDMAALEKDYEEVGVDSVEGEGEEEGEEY
Chain of Recombinant human KIF18A (1-467His-tagged) protein (P02554 whole entry partner): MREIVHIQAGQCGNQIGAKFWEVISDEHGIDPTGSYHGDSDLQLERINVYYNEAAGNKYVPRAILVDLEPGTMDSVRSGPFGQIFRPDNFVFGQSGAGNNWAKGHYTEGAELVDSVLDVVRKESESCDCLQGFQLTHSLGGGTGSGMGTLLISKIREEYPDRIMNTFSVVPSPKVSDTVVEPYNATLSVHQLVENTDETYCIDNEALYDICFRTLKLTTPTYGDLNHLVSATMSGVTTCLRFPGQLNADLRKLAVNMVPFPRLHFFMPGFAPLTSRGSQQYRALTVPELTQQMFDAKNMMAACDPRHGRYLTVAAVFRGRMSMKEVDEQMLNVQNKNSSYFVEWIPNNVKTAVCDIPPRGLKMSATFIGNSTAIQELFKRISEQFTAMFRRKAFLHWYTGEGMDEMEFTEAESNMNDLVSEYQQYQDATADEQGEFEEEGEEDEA
Outline: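 Baculovirus-expressed human KIF18A (1-467, His-tagged; 30 nM) preincubated 15 min at room temperature with compound (22-point 2-fold series) in pH 7.5 Tris buffer containing 30 μg/mL pig microtubules and 1 μM paclitaxel.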

| SMILES | IC50 (HT-29 cells) [nM] | IC50 (HCT116 cells) [nM] | IC50 [1] [nM] |
| --- | --- | --- | --- |
| Cc1cc(NC(=O)c2ccc(NS(=O)(=O)CCO)cc2N2CCC3(CC2)CC3)nc(N2CCC(F)(F)CC2)n1 [AMG650, reference compound] | 89 | > 10000 | – |
| O=C(Nc1cc2c(c(N3CCC(F)(F)CC3)c1)OCC2)c1ccc(NS(=O)(=O)CCO)cc1N1CCC2(CC1)CC2 [Compound 1] | 9 | > 10000 | ≤ 100 |
| C[C@@H]1CN(c2cc(NC(=O)c3ccc(NS(=O)(=O)CCO)cc3N3CCC4(CC3)CC4)cc3c2OCC3)CCO1 [Compound 2] | – | > 10000 | ≤ 100 |
| C[C@H]1CN(c2cc(NC(=O)c3ccc(NS(=O)(=O)CCO)cc3N3CCC4(CC3)CC4)cc3c2OCC3)CCO1 [Compound 3] | – | > 10000 | ≤ 100 |
| O=C(Nc1cc2c(c(N3CC(F)(F)C3)c1)OCC2)c1ccc(NS(=O)(=O)CCO)cc1N1CCC2(CC1)CC2 [Compound 4] | 63 | > 10000 | ≤ 100 |
| O=C(Nc1ccc(NS(=O)(=O)CCO)cc1N1CCC2(CC1)CC2)c1cc2c(c(OCCC(F)(F)F)c1)OCC2 [Compound 5] | 88 | > 10000 | – |
| O=C(Nc1cc2c(c(N3CCC4(CC4)C3)c1)OCC2)c1ccc(NS(=O)(=O)CCO)cc1N1CCC2(CC1)CC2 [Compound 6] | – | > 10000 | ≤ 100 |
| O=C(Nc1cc2c(c(OC3CCC3)c1)OCC2)c1ccc(NS(=O)(=O)CCO)cc1N1CCC2(CC1)CC2 [Compound 7] | 73 | > 10000 | ≤ 100 |
| O=C(Nc1ccc(NS(=O)(=O)CCO)cc1N1CCC2(CC1)CC2)c1cc2c(c(N3CCC(F)(F)CC3)c1)OCC2 [Compound 33] | 52 | > 10000 | ≤ 100 |
| O=C(Nc1ccc(S(=O)(=O)NCCO)cc1N1CCC2(CC1)CC2)c1cc2c(c(N3CCC(F)(F)CC3)c1)OCC2 [Compound 49] | 61 | > 10000 | ≤ 100 |
| O=C(Nc1cc2c(c(N3CCC(F)(F)CC3)n1)OCC2)c1ccc(NS(=O)(=O)CCO)cc1N1CCC2(CC1)CC2 [Compound 65] | 8 | > 10000 | ≤ 100 |
| C[C@@H]1CN(c2nc(NC(=O)c3ccc(NS(=O)(=O)CCO)cc3N3CCC4(CC3)CC4)cc3c2OCC3)CCO1 [Compound 66] | 85 | > 10000 | ≤ 100 |
| C[C@H]1CN(c2nc(NC(=O)c3ccc(NS(=O)(=O)CCO)cc3N3CCC4(CC3)CC4)cc3c2OCC3)CCO1 [Compound 67] | – | > 10000 | ≤ 100 |
| O=C(Nc1cc2c(c(N3CC(F)(F)C3)n1)OCC2)c1ccc(NS(=O)(=O)CCO)cc1N1CCC2(CC1)CC2 [Compound 68] | 51 | > 10000 | ≤ 100 |
| O=C(Nc1cc2c(c(OCCC(F)(F)F)n1)OCC2)c1ccc(NS(=O)(=O)CCO)cc1N1CCC2(CC1)CC2 [Compound 69] | 71 | > 10000 | ≤ 100 |
| O=C(Nc1cc2c(c(N3CCC4(CC4)C3)n1)OCC2)c1ccc(NS(=O)(=O)CCO)cc1N1CCC2(CC1)CC2 [Compound 70] | – | > 10000 | ≤ 100 |
| O=C(Nc1cc2c(c(OC3CCC3)n1)OCC2)c1ccc(NS(=O)(=O)CCO)cc1N1CCC2(CC1)CC2 [Compound 71] | 56 | > 10000 | ≤ 100 |
| O=C(Nc1cc2c(c(N3CCC(F)(F)CC3)n1)OCC2)c1ccc(S(=O)(=O)NCCO)cc1N1CCC2(CC1)CC2 [Compound 81] | 51 | > 10000 | ≤ 100 |
| O=C(Nc1ccc(NS(=O)(=O)CCO)cc1N1CCC2(CC1)CC2)c1cc2c(c(N3CCC(F)(F)CC3)n1)OCC2 [Compound 97] | 57 | > 10000 | ≤ 100 |
| O=C(Nc1ccc(S(=O)(=O)NCCO)cc1N1CCC2(CC1)CC2)c1cc2c(c(N3CCC(F)(F)CC3)n1)OCC2 [Compound 113] | 81 | > 10000 | ≤ 100 |
| O=C(Nc1cc(N2CCC(F)(F)CC2)c2occc2c1)c1ccc(NS(=O)(=O)CCO)cc1N1CCC2(CC1)CC2 [Compound 129] | 40 | > 10000 | ≤ 100 |
| Cn1ccc2cc(NC(=O)c3ccc(NS(=O)(=O)CCO)cc3N3CCC4(CC3)CC4)cc(N3CCC(F)(F)CC3)c21 [Compound 385] | – | > 10000 | ≤ 100 |
| O=C(Nc1cc(N2CCC(F)(F)CC2)c2ocnc2c1)c1ccc(NS(=O)(=O)CCO)cc1N1CCC2(CC1)CC2 [Compound 513] | 71 | > 10000 | ≤ 100 |
| O=C(Nc1cc2cc[nH]c2c(N2CCC(F)(F)CC2)n1)c1ccc(NS(=O)(=O)CCO)cc1N1CCC2(CC1)CC2 [Compound 522] | 69 | 8190 | ≤ 100 |
| O=C(Nc1cc(N2CCC(F)(F)CC2)c2ncccc2c1)c1ccc(NS(=O)(=O)CCO)cc1N1CCC2(CC1)CC2 [Compound 530] | 36 | > 10000 | ≤ 100 |
| O=C(Nc1cc2c(c(N3CCC(F)(F)CC3)c1)OCCC2)c1ccc(NS(=O)(=O)CCO)cc1N1CCC2(CC1)CC2 [Compound 539] | 43 | > 10000 | ≤ 100 |
| O=C(Nc1ccc(S(=O)(=O)NCCO)cc1N1CCC2(CC1)CC2)c1cc2c(c(N3CCC(F)(F)CC3)n1)OCCC2 [Compound 550] | – | – | ≤ 100 |
| O=C(Nc1cc2cccnc2c(N2CCC(F)(F)CC2)n1)c1ccc(NS(=O)(=O)CCO)cc1N1CCC2(CC1)CC2 [Compound 583] | 38 | > 10000 | – |
| O=C(Nc1ccc(NS(=O)(=O)CCO)cc1N1CCC2(CC1)CC2)c1cc2cccnc2c(N2CCC(F)(F)CC2)n1 [Compound 584] | 70 | > 10000 | – |
